These results are taken from ChEMBL document CHEMBL5331124, “Degradation of Hexokinase 2 Blocks Glycolysis and Induces GSDME-Dependent Pyroptosis to Amplify Immunogenic Cell Death for Breast Cancer Therapy” (J Med Chem, 2023).

Active and inactive are the calls of the source. The rule behind the calls is not given here.

The target in data set [1] is T1, Hexokinase-2 (Mus musculus) (UniProt O08528).
T1 sequence (whole entry): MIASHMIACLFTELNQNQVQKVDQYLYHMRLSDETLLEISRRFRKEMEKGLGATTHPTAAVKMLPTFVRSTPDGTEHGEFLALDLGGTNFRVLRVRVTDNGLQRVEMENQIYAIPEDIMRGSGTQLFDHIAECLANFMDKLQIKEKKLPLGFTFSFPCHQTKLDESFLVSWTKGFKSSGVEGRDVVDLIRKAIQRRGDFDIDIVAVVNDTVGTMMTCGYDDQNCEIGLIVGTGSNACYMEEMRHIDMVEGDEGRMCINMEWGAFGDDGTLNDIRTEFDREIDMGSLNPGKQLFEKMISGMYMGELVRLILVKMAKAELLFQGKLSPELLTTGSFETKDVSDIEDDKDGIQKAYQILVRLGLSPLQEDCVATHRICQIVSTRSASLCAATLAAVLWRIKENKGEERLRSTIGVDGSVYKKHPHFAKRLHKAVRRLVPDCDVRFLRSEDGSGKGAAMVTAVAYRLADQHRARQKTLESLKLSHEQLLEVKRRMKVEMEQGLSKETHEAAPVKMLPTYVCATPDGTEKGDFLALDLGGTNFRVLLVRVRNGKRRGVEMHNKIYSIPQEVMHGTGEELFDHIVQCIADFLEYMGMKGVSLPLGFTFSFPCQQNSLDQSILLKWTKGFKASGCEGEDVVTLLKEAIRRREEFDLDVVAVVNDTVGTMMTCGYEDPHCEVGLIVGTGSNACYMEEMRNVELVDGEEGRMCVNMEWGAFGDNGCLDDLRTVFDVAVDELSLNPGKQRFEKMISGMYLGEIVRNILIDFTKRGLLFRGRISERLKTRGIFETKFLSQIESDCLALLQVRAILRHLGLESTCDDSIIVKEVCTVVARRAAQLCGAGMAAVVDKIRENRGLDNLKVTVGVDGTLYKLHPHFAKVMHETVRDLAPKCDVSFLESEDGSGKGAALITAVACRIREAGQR
In words: (§1) Induction of HK2 degradation in mouse 4T1 cells measured for 36 hrs. The data set is classed as cell-based.

In a further data set the target is T2, Hexokinase-2 (Mus musculus, UniProt O08528).
T2 sequence (O08528 whole entry): T1 sequence (whole entry)
The data set is described as §1. The format is cell-based.

Data set [2] concerns the target Protein cereblon/Hexokinase-2 (Mus musculus) (UniProt O08528+Q8C7D2). In words: PROTAC activity at CRBN/HK2 in mouse 4T1 cells assessed as HK2 degradation at 20 uM incubated for 36 hrs. The data set is classed as cell-based.
Data set [3] relates to 4T1. Briefly: Induction of pyroptosis in mouse 4T1 cells assessed as increase in N-terminal GSDME level at 20 uM incubated for 36 hrs. The format is functional, cell-based.
Data set [4] concerns 4T1. In words: Antitumor immunity against mouse 4T1 cells implanted in BALB/c mouse model assessed as accumulation of CRT at 20 uM measured for 36 hrs by ELISA analysis. The data set is classed as functional, cell-based. Background: ELISA stands for enzyme-linked immunosorbent assay.
Data set [5] is described as follows: Toxicity in BALB/c mouse implanted with mouse 4T1 cells assessed as change in corpuscular hemoglobin concentration at 50 mg/kg, ip measured after 25 days by routine blood test. The format is organism-based. The settings on record: in vivo, 600 h, time 25 day.
Data set [6] relates to 4T1. Briefly: Antitumor immunity against mouse 4T1 cells implanted in BALB/c mouse model assessed as increase in CRT accumulation in tumor. The data set is classed as functional, cell-based.

Sequence of Protein cereblon/Hexokinase-2 (Mus musculus) (Q8C7D2 whole entry, looked up, one chain of several): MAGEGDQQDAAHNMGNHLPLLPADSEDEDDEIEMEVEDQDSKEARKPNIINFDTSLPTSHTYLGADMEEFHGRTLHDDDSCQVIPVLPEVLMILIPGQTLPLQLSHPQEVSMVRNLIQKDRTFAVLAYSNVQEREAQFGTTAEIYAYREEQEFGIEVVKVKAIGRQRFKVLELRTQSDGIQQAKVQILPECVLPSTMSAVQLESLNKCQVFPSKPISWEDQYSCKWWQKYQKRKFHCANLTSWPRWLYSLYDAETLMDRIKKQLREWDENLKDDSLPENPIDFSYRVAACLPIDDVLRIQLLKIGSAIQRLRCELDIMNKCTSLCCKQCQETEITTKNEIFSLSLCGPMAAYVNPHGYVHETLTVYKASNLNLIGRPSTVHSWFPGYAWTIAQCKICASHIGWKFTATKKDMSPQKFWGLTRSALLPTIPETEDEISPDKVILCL

As a reminder, the DC50 is the concentration at which degradation of the target reaches its halfway point. Read a low DC50 as degradation at low concentration. For the compound `O=C1CCC(N2C(=O)c3cccc(NCCCCNC(=O)c4nn(Cc5ccc(Cl)cc5Cl)c5ccccc45)c3C2=O)C(=O)N1` (configuration not stated), the Activity entry in data set [1] was “Dose-Dependent Effect”; in data set [5], “Non-Toxic”. Further, at Hexokinase-2, it took 2560 nM to reach half-maximal degradation (DC50). The outcome (in data set [2]; in the data set on 4T1 [3]; in the data set with 4T1 [4]; with 4T1 [6]) was Active.
